Laboratory results reported in patent US12194048B2, “Use of pyrrolopyridine derivatives for preventing or treating inflammatory diseases” (VORONOI CO., LTD., priority 2020, dated 2025).

Assays:
[1] = test system: THP-1 cells; assay: Pro-inflammatory cytokine expression in LPS-stimulated THP-1 cells; format: cell-based; conditions: pre-treated 1 hour, then LPS 0.5 μg/ml 24 hours; FIG. 1a
[2] = test system: NF-κb signaling pathway; assay: Intranuclear movement of p50 and p65 in LPS-stimulated THP-1 cells; format: cell-based; conditions: LPS-treated THP-1 cells; FIG. 1b
[3] = test system: naive T cells in the mouse spleen; assay: Regulatory T cell and Th17 cell differentiation; format: cell-based; conditions: FIG. 2
Experimental: The experiment was conducted using Harmine as a control.

[4] = test system: peripheral blood mononuclear cells of inflammatory bowel disease patients; assay: Inflammatory cytokine expression in PBMC of inflammatory bowel disease patients; format: cell-based, human; conditions: treated 24 hours; FIG. 4
[5] = test system: 2,4,6-trinitrobenzenesulfonic acid (TNBS) induced colitis mouse model; assay: TNBS induced colitis mouse model; format: in vivo, male BALB/c mice; conditions: 60 mpk orally once daily
Experimental: In the present experiment, male BALB/c mice (8 weeks old) were used. The experimental animals were subjected to dietary restriction for one day prior to treating with TNBS. Bowel inflammation was induced by administering TNBS (TNBS solution, 1 mg in 0.1 mL 50% ethanol) by submucosal injection in the colon. For the control animals in which inflammation was not induced, only 0.9% NaCl solution without TNBS was administered by submucosal injection in the colon.
The comparative compound, cyclosporine A, was orally administered once daily, and the TNF-α blocker (Enbrel®) was administered intraperitoneally once daily.
During the test, changes in body weight, occult bleeding in stool, and stool consistently were examined every day, and serum was collected on day 5 of the experiment. Bowel tissue was collected at the termination of the experiment to measure the weight of the bowel tissue, degree of polymorphonuclear leukocyte (PMN) deposition and degree of myeloperoxidase (MPO) expression.

[6] = test system: DSS-induced inflammatory bowel disease mouse model; assay: DSS-induced inflammatory bowel disease mouse model; format: in vivo, male C57BL/6 mice; conditions: 20 mg/kg orally twice a day
Experimental: The animals used for the present experiment was male C57BL/6 mice (aged 6 to 8 weeks) weighting 20 to 24 g, purchased from Charles River Laboratories. All the mice except the normal control were made to drink 3% DSS water for 5 days to induce enteritis.
The comparative compound cyclosporine A was dissolved in 0.5% methylcellulose solvent and orally administered once a day at a prescribed concentration (20 mg/kg), and Tofacitinib was dissolved in 0.5% methylcellulose solvent and orally administered twice a day at a prescribed concentration (10 mg/kg).
Changes in body weight, occult bleeding in stool, and stool consistently were examined daily during the experiment to assess the degree of disease activity, and upon termination of the experiment (day 12), bowel tissue was collected in order to measure bowel tissue weight and length, perform histological analysis using H&E dyeing and PAS dyeing, and analyze expression of inflammatory cytokines in the bowel tissue.
To assess disease activity, changes in weight and other criteria disclosed in Table 4 below were used for scoring; scores were aggregated.

[7] = Metabolic stability (MS) evaluation; format: in vitro ADME
[8] = Metabolic stability (MS) evaluation; format: in vitro ADME; remark: listed apart in the source
[9] = molecular target: CYP 1A2 (Homo sapiens, UniProt P05177); assay: CYP inhibition assay (luminescence); format: in vitro ADME
From the text: (§1) DDI (Drug Interaction) can be observed in a CYP inhibition assay. A luminescence assay was used to measure and evaluate inhibition activity against 1A2, 2C9, 2C19, 2D6 and 3A4, which are important Phase 1 drug metabolism CYP450 enzymes involved in drug metabolism.

[10] = molecular target: CYP 2C19 (Homo sapiens, UniProt P33261); assay: CYP inhibition assay (luminescence); format: in vitro ADME
From the text: as §1

[11] = molecular target: CYP 2C9 (Homo sapiens, UniProt P11712); assay: CYP inhibition assay (luminescence); format: in vitro ADME
From the text: as §1

[12] = molecular target: CYP 2D6 (Homo sapiens, UniProt P10635); assay: CYP inhibition assay (luminescence); format: in vitro ADME
From the text: as §1

[13] = molecular target: CYP 3A4 (Homo sapiens, UniProt P08684); assay: CYP inhibition assay (luminescence); format: in vitro ADME
From the text: as §1

[14] = Plasma stability evaluation; format: in vitro ADME; conditions: LC-MS/MS
Experimental: Hydrolysis in plasma is a factor which, together with metabolic reactions, impacts fast in-vivo decomposition of a drug and short half-life thereof; plasma stability is a test which assesses these. The compound at a certain concentration was added to plasma and reacted for a certain period, then collected, and LC-MS/MS was used to measure the percentage of compound remaining relative to the amount prior to the reaction.

[15] = test system: IMQ-induced psoriasis-like skin inflammation model; assay: Topical treatment in imiquimod (IMQ)-induced psoriasis-like skin inflammation; format: in vivo, BALB/c mice
Experimental: Dexamethasone (0.15%), the reference compound, was applied topically at 20 μL/mouse on the right ear once daily (QD) during the same study period.
Fifteen (15) mg imiquimod (IMQ) cream (5%) (Aldara; 3M Pharmaceuticals) was topically administered once daily (QD) on the right ear one hour after treatment from Day 1 to Day 9 for 9 consecutive days, translating to a daily dose of 0.75 mg of the active compound.
Ear swelling was measured on Day 0 and thereafter 30 min before dosing on Days 2, 4, 6 and 8. On Day 10, ear swelling was measured 24 hours after the last dosing.

Sequence of CYP 3A4 (P08684 whole entry): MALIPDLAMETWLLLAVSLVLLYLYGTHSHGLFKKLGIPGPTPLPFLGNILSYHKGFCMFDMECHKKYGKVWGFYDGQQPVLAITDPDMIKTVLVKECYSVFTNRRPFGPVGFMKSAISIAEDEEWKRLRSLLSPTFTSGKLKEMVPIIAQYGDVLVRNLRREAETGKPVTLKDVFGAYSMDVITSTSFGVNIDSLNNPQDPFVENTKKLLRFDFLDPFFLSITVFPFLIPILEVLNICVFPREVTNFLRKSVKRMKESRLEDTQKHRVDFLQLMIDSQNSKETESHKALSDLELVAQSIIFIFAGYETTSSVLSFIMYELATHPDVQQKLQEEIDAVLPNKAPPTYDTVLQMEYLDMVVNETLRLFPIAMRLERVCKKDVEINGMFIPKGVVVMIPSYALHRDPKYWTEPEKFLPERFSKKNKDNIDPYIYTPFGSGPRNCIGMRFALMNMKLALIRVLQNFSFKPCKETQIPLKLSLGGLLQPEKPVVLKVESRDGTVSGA
Sequence of CYP 2C19 (P33261 whole entry): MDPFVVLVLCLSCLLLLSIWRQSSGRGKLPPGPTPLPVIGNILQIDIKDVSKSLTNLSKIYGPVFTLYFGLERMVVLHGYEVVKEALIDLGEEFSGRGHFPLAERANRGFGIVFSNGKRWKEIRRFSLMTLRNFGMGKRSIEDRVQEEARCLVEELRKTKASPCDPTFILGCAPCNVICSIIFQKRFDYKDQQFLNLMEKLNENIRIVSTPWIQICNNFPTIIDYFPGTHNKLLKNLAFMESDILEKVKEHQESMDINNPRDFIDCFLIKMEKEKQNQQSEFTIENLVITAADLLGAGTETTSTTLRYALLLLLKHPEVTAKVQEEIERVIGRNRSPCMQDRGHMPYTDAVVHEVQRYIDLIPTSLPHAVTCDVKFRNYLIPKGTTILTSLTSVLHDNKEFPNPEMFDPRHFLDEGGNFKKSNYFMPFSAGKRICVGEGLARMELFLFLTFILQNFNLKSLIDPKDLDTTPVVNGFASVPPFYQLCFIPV
Sequence of CYP 2C9 (P11712 whole entry): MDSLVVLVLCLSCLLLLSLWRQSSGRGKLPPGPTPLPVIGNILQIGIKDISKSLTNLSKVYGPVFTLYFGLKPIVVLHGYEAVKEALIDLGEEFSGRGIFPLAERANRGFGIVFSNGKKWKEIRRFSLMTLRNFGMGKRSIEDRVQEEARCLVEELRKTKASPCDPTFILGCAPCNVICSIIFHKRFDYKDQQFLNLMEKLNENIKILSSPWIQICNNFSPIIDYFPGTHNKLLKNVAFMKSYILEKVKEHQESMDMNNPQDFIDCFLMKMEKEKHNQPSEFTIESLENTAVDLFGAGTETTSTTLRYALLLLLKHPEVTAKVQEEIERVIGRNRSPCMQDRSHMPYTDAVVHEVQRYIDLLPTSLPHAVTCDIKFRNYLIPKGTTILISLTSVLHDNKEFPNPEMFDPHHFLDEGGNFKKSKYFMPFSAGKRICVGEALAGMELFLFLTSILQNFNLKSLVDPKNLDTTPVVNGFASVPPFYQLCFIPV
Sequence of CYP 1A2 (P05177 whole entry): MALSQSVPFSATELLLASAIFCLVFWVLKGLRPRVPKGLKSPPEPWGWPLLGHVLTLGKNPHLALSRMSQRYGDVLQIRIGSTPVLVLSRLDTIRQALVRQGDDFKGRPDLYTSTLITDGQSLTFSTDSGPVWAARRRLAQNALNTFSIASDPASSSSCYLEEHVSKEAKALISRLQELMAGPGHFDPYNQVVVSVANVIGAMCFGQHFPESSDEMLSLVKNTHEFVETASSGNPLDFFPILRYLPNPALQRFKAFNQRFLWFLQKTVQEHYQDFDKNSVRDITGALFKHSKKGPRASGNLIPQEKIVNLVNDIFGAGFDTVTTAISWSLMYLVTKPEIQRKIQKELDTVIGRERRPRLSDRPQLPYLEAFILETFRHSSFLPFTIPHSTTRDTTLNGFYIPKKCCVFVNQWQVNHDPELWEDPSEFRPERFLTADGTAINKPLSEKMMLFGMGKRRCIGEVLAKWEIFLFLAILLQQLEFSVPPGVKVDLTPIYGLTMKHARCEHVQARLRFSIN
Sequence of CYP 2D6 (P10635 whole entry): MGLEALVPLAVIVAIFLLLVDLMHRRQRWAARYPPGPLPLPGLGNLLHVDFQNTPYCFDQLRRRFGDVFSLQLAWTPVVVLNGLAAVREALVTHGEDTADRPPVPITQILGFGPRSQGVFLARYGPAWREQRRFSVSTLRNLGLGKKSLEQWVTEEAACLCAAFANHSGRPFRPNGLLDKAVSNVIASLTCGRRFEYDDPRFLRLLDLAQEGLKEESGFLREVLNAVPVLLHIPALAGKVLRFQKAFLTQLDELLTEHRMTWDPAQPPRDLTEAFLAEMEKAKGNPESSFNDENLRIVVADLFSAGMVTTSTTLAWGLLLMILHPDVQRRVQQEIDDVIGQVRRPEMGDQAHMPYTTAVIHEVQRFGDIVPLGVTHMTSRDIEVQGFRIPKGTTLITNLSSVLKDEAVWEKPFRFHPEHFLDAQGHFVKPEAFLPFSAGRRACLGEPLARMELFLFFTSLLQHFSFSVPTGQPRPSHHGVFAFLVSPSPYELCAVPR

CCNc1cc(Nc2ccc(C(=O)N3CCC(N4CCOCC4)CC3)cc2OC)nc2[nH]cc(C(F)(F)F)c12 [Compound 1, (4-((4-(ethylamino)-3-(trifluoromethyl)-1H-pyrrolo[2,3-b]pyridine-6-yl)amino)-3-methoxyphenyl)(4-morpholinopiperidine-1-yl)methanone]
expression of IL-6 [1]: effectively inhibited
expression of TNF-α [1]: effectively inhibited
intranuclear movement of p50 [2]: effectively inhibited
intranuclear movement of p65 [2]: effectively inhibited
differentiation of Th17 cells ([3]; Th17 differentiation conditions): decreased
differentiation of regulatory T cells (Treg) ([3]; regulatory T cell differentiation conditions): increased
expression of IL-6 [4]: effectively inhibiting
expression of IL-17A [4]: effectively inhibiting
expression of TNF-α [4]: effectively inhibiting
weight of bowel tissue ([5]; FIG. 6): weight reduction
thickness of lamina propria ([5]; H&E, FIG. 5): decreased in thickness
MPO levels ([5]; bowel tissue, vs control not treated, FIG. 6): lower
disease activity ([6]; FIG. 7): reduced to the level of the control administered cyclosporine A
expression of IL-6 in bowel tissue ([6]; FIG. 8): decreased
expression of IL-17A in bowel tissue ([6]; FIG. 8): decreased
expression of TNR-α in bowel tissue ([6]; FIG. 8): decreased
loss of goblet cells ([6]; histological analysis, FIG. 8): reduced
body weight reduction ([6]; vs control not treated, FIG. 7): less weight reduction
MS (1 μM) (% remaining during 30 min) Human [7]: 39%
MS (1 μM) (% remaining during 30 min) Dog [8]: 96%
CYP (10 μM) (% of control activity 1A2) [9]: 86%
CYP (10 μM) (% of control activity 2C19) [10]: 84%
CYP (10 μM) (% of control activity 2C9) [11]: 74%
CYP (10 μM) (% of control activity 2D6) [12]: 92%
CYP 3A4 enzyme inhibition activity (in words) [13]: almost no enzyme inhibition activity
CYP (10 μM) (% of control activity 3A4) ([13]; 10 μM): 72%
Plasma stability (% remaining, 30 min) ([14]; 30 min): 100%
Plasma stability (% remaining, 120 min) ([14]; 120 min): 97.2%
IMQ-induced ear swelling ([15]; 0.3, 1% and 3% topical 20 μL/mouse QD x 9 days, Day 6 to Day 10, dose-dependent, vs no treatment and vehicle): moderate to significant (p<0.05) inhibition
severity of skin lesions (histopathological examination of the ear skin) ([15]; 3% topical, vs no treatment group and vehicle group): attenuated significantly
protective effects in IMQ-induced psoriasis-like inflammation (ear swelling, ear weight, histopathological result) ([15]; 3%, high dose, 20 μL/mouse QD×9 days topically): significant (p<0.05) protective effects
